In US20240123080A1, “CYTOTOXIC COMPOUNDS AND CONJUGATES THEREOF” (Seagen Inc., priority 2022, published 2024):
*1 amine or outer side, *2 acyl side, *3 side chain or, on linkers, in order; H or OH if unused. Where a SMILES comes first, the peptide text is derived from it. [ ]: non-standard residue; d: D form. The star is where a group is joined. Dolaproine = CO[C@@H]([C@@H]1CCCN1)[C@@H](C)C(=O)O; Dil = CC[C@H](C)[C@H](NC)[C@@H](CC(=O)O)OC; X11 = C[S+]([O-])NC[C@H](N[*:1])C(=O)[*:2]; Met(O2) = CS(=O)(=O)CC[C@H](N)C(=O)O; Doe = c1ccc(C[C@H](N*)c2nccs2)cc1; X1 = C[C@@H](N*)[C@@H](O)c1ccccc1; X10 = C[C@H]1OC(=O)N[C@@H]1C(=O)*; Hyp = O=C(O)[C@@H]1C[C@@H](O)CN1; NMeT = CN[C@H](C(=O)O)[C@@H](C)O; Phe(ol) = N[C@H](CO)Cc1ccccc1; X4 = CN1C(=O)OC(C)(C)C1C(=O)*; NHPhenethyl = c1ccc(CCN*)cc1; X8 = CN1C(=O)OC[C@H]1C(=O)*; X5 = O=C1N[C@H](C(=O)*)CO1; NMeS = CN[C@@H](CO)C(=O)O; dNMeS = CN[C@H](CO)C(=O)O; X7 = O=C1NC(C(=O)*)CCO1; Dap = NC[C@H](N)C(=O)O; Glycolyl = O=C(CO)*; Ms = CS(=O)(=O)*

Columns and labels:
L540cy HL = assay: In vitro cytotoxicity, cell proliferation assay (CellTiter-Glo, 96 h); format: cell-based; settings: auristatin free drug
Method: (§1) The cytotoxicity of free drugs and drug conjugates were measured by a cell proliferation assay employing the protocol described in Promega Corp. Technical Bulletin TB288; and Mendoza et al., 2002, Cancer Res. 62:5485-5488), the methods of which are specifically incorporated by reference herein. Briefly, an aliquot of 40 μl of cell culture containing about 400 cells in medium is deposited in each well of a 384-well, opaque-walled plate. A 10 μL aliquot of free drug or drug conjugate is added to the experimental wells and incubated for 96 h and are then equilibrated to room temperature for approximately 30 minutes whereupon a volume of CellTiter-Glo™ reagent equal to the volume of cell culture medium present in each well is added. The contents are mixed for 2 minutes on an orbital shaker to induce cell lysis and the plate is incubated at room temperature for 10 minutes to stabilize the luminescence signal for recordation.

Karpas299 NHL = assay: as above; format: cell-based; settings: Homo sapiens, KARPAS-299, auristatin free drug
Method: as §1

DEL ALCL = assay: as above; format: cell-based; settings: auristatin free drug
Method: as §1

[1] = LogD, miniaturized 1-octanol/pH 7.4 buffer shake flask method, LC/MS/MS; format: physicochemical
Method: The LogD (distribution coefficient) of the compounds was measured using a miniaturized 1-octanol/pH 7.4 buffer shake flask method followed by LC/MS/MS analysis. Values were determined by measuring the compound partitioned in the organic and buffered layers.

Structure (SMILES)	IC50 (L540cy HL) [nM]	IC50 (Karpas299 NHL) [nM]	IC50 (DEL ALCL) [nM]	logD [1]
CC[C@H](C)[C@@H]([C@@H](CC(=O)N1CCC[C@H]1[C@H](OC)[C@@H](C)C(=O)N[C@H](CO)Cc1ccccc1)OC)N(C)C(=O)[C@@H](NC(=O)[C@H](CO)NC)C(C)C [Example 12] (H-[NMeS]V[Dil][Dolaproine][Phe(ol)])	4.8	0.3	1.1	1.2
CC[C@H](C)[C@@H]([C@@H](CC(=O)N1CCC[C@H]1[C@H](OC)[C@@H](C)C(=O)N[C@H](CO)Cc1ccccc1)OC)N(C)C(=O)[C@@H](NC(=O)[C@@H](NC)[C@@H](C)O)C(C)C [Example 13] (H-[NMeT]V[Dil][Dolaproine][Phe(ol)])	5	2.2	1.2	1.4
CC[C@H](C)[C@@H]([C@@H](CC(=O)N1CCC[C@H]1[C@H](OC)[C@@H](C)C(=O)N[C@H](CO)Cc1ccccc1)OC)N(C)C(=O)[C@@H](NC(=O)[C@@H](CO)NC)C(C)C [Example 14] (H-[dNMeS]V[Dil][Dolaproine][Phe(ol)])	10	7.4	3.5	1.1
CC[C@H](C)[C@@H]([C@@H](CC(=O)N1CCC[C@H]1[C@H](OC)[C@@H](C)C(=O)N[C@H](C)[C@@H](O)c1ccccc1)OC)N(C)C(=O)[C@@H](NC(=O)[C@H](CO)NC)C(C)C [Example 17] (H-[NMeS]V[Dil][Dolaproine]-X1)	16.2	7.6	2.5	1.1
CC[C@H](C)[C@@H]([C@@H](CC(=O)N1CCC[C@H]1[C@H](OC)[C@@H](C)C(=O)NCCc1ccccc1)OC)N(C)C(=O)[C@@H](NC(=O)[C@H](CO)NC)C(C)C [Example 18] (H-[NMeS]V[Dil][Dolaproine]-NHPhenethyl)	16	2.3	0.6	1.9
CC[C@H](C)[C@@H]([C@@H](CC(=O)N1CCC[C@H]1[C@H](OC)[C@@H](C)C(=O)N[C@@H](Cc1ccccc1)c1nccs1)OC)N(C)C(=O)[C@@H](NC(=O)[C@H](CO)NC)C(C)C [Example 19] (H-[NMeS]V[Dil][Dolaproine]-Doe)	2.5	0.5	0.4	2.4
CC[C@H](C)[C@@H]([C@@H](CC(=O)N1CCC[C@H]1[C@H](OC)[C@@H](C)C(=O)N[C@@H](Cc1ccccc1)c1nccs1)OC)N(C)C(=O)[C@@H](NC(=O)[C@H](CO)NC)[C@@H](C)CC [Example 20] (H-[NMeS]I[Dil][Dolaproine]-Doe)	4.7	1	0.3	1.9
CC[C@H](C)[C@@H]([C@@H](CC(=O)N1CCC[C@H]1[C@H](OC)[C@@H](C)C(=O)N[C@H](CO)Cc1ccccc1)OC)N(C)C(=O)[C@@H](NC(=O)[C@@H]1COC(=O)N1C)C(C)C [Example 36] (X8-V[Dil][Dolaproine][Phe(ol)])	197	27	6.7	
CC[C@H](C)[C@@H]([C@@H](CC(=O)N1CCC[C@H]1[C@H](OC)[C@@H](C)C(=O)N[C@H](C)[C@@H](O)c1ccccc1)OC)N(C)C(=O)[C@@H](NC(=O)[C@@H]1COC(=O)N1C)C(C)C [Example 37]	> 1000	> 1000	> 1000	
CC[C@H](C)[C@@H]([C@@H](CC(=O)N1CCC[C@H]1[C@H](OC)[C@@H](C)C(=O)NCCc1ccccc1)OC)N(C)C(=O)[C@@H](NC(=O)[C@@H]1COC(=O)N1C)C(C)C [Example 38]	512	> 1000	148	
CC[C@H](C)[C@@H]([C@@H](CC(=O)N1CCC[C@H]1[C@H](OC)[C@@H](C)C(=O)N[C@@H](Cc1ccccc1)c1nccs1)OC)N(C)C(=O)[C@@H](NC(=O)[C@@H]1COC(=O)N1C)C(C)C [Example 39]	> 1000	> 1000	512	
CC[C@H](C)[C@@H]([C@@H](CC(=O)N1CCC[C@H]1[C@H](OC)[C@@H](C)C(=O)N[C@H](CO)Cc1ccccc1)OC)N(C)C(=O)[C@@H](NC(=O)[C@@H]1COC(=O)N1)C(C)C [Example 40] (X5-V[Dil][Dolaproine][Phe(ol)])	442	60	12.3	
CC[C@H](C)[C@@H]([C@@H](CC(=O)N1CCC[C@H]1[C@H](OC)[C@@H](C)C(=O)N[C@H](CO)Cc1ccccc1)OC)N(C)C(=O)[C@@H](NC(=O)C1CCOC(=O)N1)C(C)C (stereo partly shown) [Example 41] (X7-V[Dil][Dolaproine][Phe(ol)])	457	62	15	
CC[C@H](C)[C@@H]([C@@H](CC(=O)N1CCC[C@H]1[C@H](OC)[C@@H](C)C(=O)N[C@H](CO)Cc1ccccc1)OC)N(C)C(=O)[C@@H](NC(=O)[C@H]1NC(=O)O[C@@H]1C)C(C)C [Example 42] (X10-V[Dil][Dolaproine][Phe(ol)])	481	64	16	
CC[C@H](C)[C@@H]([C@@H](CC(=O)N1CCC[C@H]1[C@H](OC)[C@@H](C)C(=O)N[C@H](CO)Cc1ccccc1)OC)N(C)C(=O)[C@@H](NC(=O)C1N(C)C(=O)OC1(C)C)C(C)C (stereo partly shown) [Example 43] (X4-V[Dil][Dolaproine][Phe(ol)])	19	5.9	3.2	
CC[C@H](C)[C@@H]([C@@H](CC(=O)N1CCC[C@H]1[C@H](OC)[C@@H](C)C(=O)N[C@H](CO)Cc1ccccc1)OC)N(C)C(=O)[C@@H](NC(=O)[C@@H](N)CNC(C)=O)C(C)C [Example 46] (H-[Dap](Ac)V[Dil][Dolaproine][Phe(ol)])	> 1000	264	141	
CC[C@H](C)[C@@H]([C@@H](CC(=O)N1CCC[C@H]1[C@H](OC)[C@@H](C)C(=O)N[C@H](CO)Cc1ccccc1)OC)N(C)C(=O)[C@@H](NC(=O)[C@@H](N)CCS(C)(=O)=O)C(C)C [Example 47] (H-[Met(O2)]V[Dil][Dolaproine][Phe(ol)])	> 1000	> 1000	> 1000	
CC[C@H](C)[C@@H]([C@@H](CC(=O)N1CCC[C@H]1[C@H](OC)[C@@H](C)C(=O)N[C@H](CO)Cc1ccccc1)OC)N(C)C(=O)[C@@H](NC(=O)[C@@H](N)CN[S+](C)[O-])C(C)C (stereo partly shown) [Example 48] (H-[X11]V[Dil][Dolaproine][Phe(ol)])	> 1000	110	41	
CC[C@H](C)[C@@H]([C@@H](CC(=O)N1CCC[C@H]1[C@H](OC)[C@@H](C)C(=O)N[C@H](CO)Cc1ccccc1)OC)N(C)C(=O)[C@@H](NC(=O)[C@@H]1C[C@@H](O)CN1)C(C)C [Example 49] (H-[Hyp]V[Dil][Dolaproine][Phe(ol)])	76	35	32	
CC[C@H](C)[C@@H]([C@@H](CC(=O)N1CCC[C@H]1[C@H](OC)[C@@H](C)C(=O)N[C@H](CO)Cc1ccccc1)OC)N(C)C(=O)[C@@H](NC(=O)[C@@H](N)CNS(C)(=O)=O)C(C)C [Example 50] (H-[Dap](Ms)V[Dil][Dolaproine][Phe(ol)])	> 1000	> 1000	> 1000	
CC[C@H](C)[C@@H]([C@@H](CC(=O)N1CCC[C@H]1[C@H](OC)[C@@H](C)C(=O)N[C@H](CO)Cc1ccccc1)OC)N(C)C(=O)[C@@H](NC(=O)[C@@H](N)CNC(=O)CO)C(C)C [Example 51] (H-[Dap](Glycolyl)V[Dil][Dolaproine][Phe(ol)])	> 1000	224	93	
CC[C@H](C)[C@@H]([C@@H](CC(=O)N1CCC[C@H]1[C@H](OC)[C@@H](C)C(=O)NC(CO)Cc1nccs1)OC)N(C)C(=O)[C@@H](NC(=O)[C@H](CO)N(C)C)C(C)C (stereo partly shown) [Example 52]	438	58	43	
CC[C@H](C)[C@@H]([C@@H](CC(=O)N1CCC[C@H]1[C@H](OC)[C@@H](C)C(=O)NC(CO)Cn1ccnn1)OC)N(C)C(=O)[C@@H](NC(=O)[C@H](CO)N(C)C)C(C)C (stereo partly shown) [Example 53]	> 1000	> 1000	> 1000	
CC[C@H](C)[C@@H]([C@@H](CC(=O)N1CCC[C@H]1[C@H](OC)[C@@H](C)C(=O)NC(CCO)Cc1ccccc1)OC)N(C)C(=O)[C@@H](NC(=O)[C@H](CO)N(C)C)C(C)C (stereo partly shown) [Example 54]	274	6	7	
CC[C@H](C)[C@@H]([C@@H](CC(=O)N1CCC[C@H]1[C@H](OC)[C@@H](C)C(=O)NC(Cc1ccccc1)c1cccs1)OC)N(C)C(=O)[C@@H](NC(=O)[C@H](CO)N(C)C)C(C)C (stereo partly shown) [Example 55]	16	1	0.8	
CC[C@H](C)[C@@H]([C@@H](CC(=O)N1CCC[C@H]1[C@H](OC)[C@@H](C)C(=O)NC(Cc1ccccc1)c1ncco1)OC)N(C)C(=O)[C@@H](NC(=O)[C@H](CO)N(C)C)C(C)C (stereo partly shown) [Example 56]	24	0.9	1	
CC[C@H](C)[C@@H]([C@@H](CC(=O)N1CCC[C@H]1[C@H](OC)[C@@H](C)C(=O)N[C@@H](Cc1ccccc1)[C@@H](O)CO)OC)N(C)C(=O)[C@@H](NC(=O)[C@H](CO)N(C)C)C(C)C [Example 57]	49	3	4	
